This is an account of results in ChEMBL document CHEMBL1121763, “2,3-Dihydrobenzofuran-2-ones: a new class of highly potent antiinflammatory agents” (J Med Chem, 1981).

For test [1], the species on record is Rattus norvegicus. Nature of the test: animal or person. To be noted: po, 3 h. Format: functional.
Description: Compound administered perorally for inhibition of carrageenan induced paw edema after 3h in rat
The target of test [2] is Cyclooxygenase (Bos taurus).
In test [3] the test system is Rattus norvegicus. Kind of test: Inhibition of adjuvant-induced polyarthritis in rat following p.o. administration. It is filed as functional. To be noted: po.

Bounds are passed on as bounds.

On to `O=C1Cc2cc(C3CCCCC3)ccc2O1`, for which the ED50 (in general, the dose at which the effect has come halfway, by size or by number of responders) in the test listed under Rattus norvegicus [1] is above 60 mg/kg. The IC50 (usually the concentration that inhibits the measured activity by half) in test [2] came out at 10000 nM.
The matching figures for `O=C1Cc2ccccc2O1`: above 60 mg/kg and above 100000 nM.
Consider `O=C1Cc2cc([N+](=O)[O-])c(C3CCCCC3)cc2O1`, for which the ED50 with Rattus norvegicus [3] was determined as 4 mg/kg; in the test listed under Rattus norvegicus [1], 6 mg/kg. Also, the IC50 in test [2] was 500 nM.
Consider `O=C1Cc2ccc(C3CCCC3)cc2O1`, for which the ED50 was determined as 60 mg/kg in the test on Rattus norvegicus [3] and 30 mg/kg in the test filed under Rattus norvegicus [1]. The compound also showed an IC50 in test [2] of 10000 nM.
The matching figures for `CC1C(=O)Oc2cc(C3CCCCC3)ccc21` (configuration not stated): 2.5 mg/kg, 0.8 mg/kg and 400 nM.
In the case of `O=C1Cc2cc(Br)c(C3CCCCC3)cc2O1`, the ED50 was found to be 7 mg/kg with Rattus norvegicus [3] and 2 mg/kg in the test filed under Rattus norvegicus [1]. The same compound came in with an IC50 in test [2] of 30 nM.
Take `CC(C)Cc1ccc2c(c1)OC(=O)C2`: the ED50 in the test with Rattus norvegicus [3] is above 40 mg/kg; in the test filed under Rattus norvegicus [1] it was 8 mg/kg. This compound displayed an IC50 in test [2] of 3000 nM.
As for `COc1cc2c(cc1-c1ccccc1)OC(=O)C2`, the ED50 with Rattus norvegicus [3] and in the test filed under Rattus norvegicus [1] was 30 mg/kg throughout. This compound yielded an IC50 in test [2] of 10000 nM.
For `O=C1Cc2cc(Cl)c(-c3ccccc3)cc2O1`, the ED50 is 3 mg/kg in the test on Rattus norvegicus [3] and 1 mg/kg in the test filed under Rattus norvegicus [1]. In test [2], this compound returned an IC50 of 80 nM.
In the case of `Cc1cc2c(cc1C1CCCCC1)OC(=O)C2C` (configuration not stated), the 50% effective dose (ED50) in the test with Rattus norvegicus [3] is below 3 mg/kg; in the test filed under Rattus norvegicus [1], 6 mg/kg. Further, the IC50 in test [2] amounted to 100 nM.
Compound `O=C1Cc2cc(O)c(-c3ccccc3)cc2O1` returned an ED50 in the test listed under Rattus norvegicus [1] above 30 mg/kg. Besides, in test [2], the IC50 stood at 50000 nM.
`CC1C(=O)Oc2cc(-c3ccccc3)c(Cl)cc21` (configuration not stated): the ED50 with Rattus norvegicus [3] was determined as 2 mg/kg; in the test listed under Rattus norvegicus [1], 0.3 mg/kg. The compound further showed an IC50 in test [2] of 80 nM.
Take `Cc1cc2c(cc1C1CCCCC1)OC(=O)C2`: the results for the ED50 in the test with Rattus norvegicus [3] and in the test listed under Rattus norvegicus [1] were 1.5 mg/kg and 3 mg/kg, respectively. This compound returned an IC50 in test [2] of 100 nM.
Turning to `CC1C(=O)Oc2cc(-c3ccccc3)ccc21` (configuration not stated), the ED50 was 14 mg/kg with Rattus norvegicus [3] and 2.5 mg/kg in the test listed under Rattus norvegicus [1]. In test [2], this compound showed an IC50 of 500 nM.
As to `O=C1Cc2cc(Cl)c(C3CCCCC3)c(Cl)c2O1`, the values for the ED50 in the test with Rattus norvegicus [3] and in the test listed under Rattus norvegicus [1] were 30 mg/kg and 2 mg/kg, respectively. In test [2], this compound came in with an IC50 of 1000 nM.
The matching figures for `O=C1Cc2ccc(C3CCCCC3)c(Br)c2O1`: above 30 mg/kg, 36 mg/kg and 3000 nM.
With `O=C1Cc2ccc(C3CCCCC3)cc2O1`, the figures for the ED50 with Rattus norvegicus [3] and in the test listed under Rattus norvegicus [1] were 20 mg/kg and 1 mg/kg, respectively. Moreover, the IC50 in test [2] came to 800 nM.
For `CCC1C(=O)Oc2cc(-c3ccccc3)ccc21` (configuration not stated), the ED50 is above 30 mg/kg in the test with Rattus norvegicus [3] and 25 mg/kg in the test listed under Rattus norvegicus [1]. In test [2], this compound returned an IC50 of 50000 nM.
On to `CC1C(=O)Oc2cc(C3CCCCC3)c(Cl)cc21` (configuration not stated), for which the ED50 was 1 mg/kg in the test with Rattus norvegicus [3] and 0.3 mg/kg in the test filed under Rattus norvegicus [1]. In test [2], the IC50 was found to be 70 nM.
The matching figures for `O=C1Cc2ccc(-c3ccccc3)cc2O1`: 20 mg/kg, 6 mg/kg and 700 nM.
Regarding `O=C1Cc2cccc(C3CCCCC3)c2O1`, the values for the ED50 with Rattus norvegicus [3] and in the test filed under Rattus norvegicus [1] were above 30 mg/kg and above 60 mg/kg, respectively. In test [2], this compound registered an IC50 of 100000 nM.
On to `O=C1Cc2cc(Cl)c(C3CCCCC3)cc2O1` [CLOFURAC], for which the values for the ED50 in the test on Rattus norvegicus [3] and in the test listed under Rattus norvegicus [1] were 1 mg/kg and 0.5 mg/kg, respectively. Moreover, the IC50 in test [2] was 50 nM.
Turning to `O=C(O)Cc1ccccc1Nc1c(Cl)cccc1Cl` [DICLOFENAC], the ED50 in the test with Rattus norvegicus [3] was found to be 2 mg/kg; in the test filed under Rattus norvegicus [1], 3 mg/kg.
Take `COc1ccc2c(c1)c(CC(=O)O)c(C)n2C(=O)c1ccc(Cl)cc1` [INDOMETHACIN]: the figures for the ED50 in the test with Rattus norvegicus [3] and in the test filed under Rattus norvegicus [1] were 0.4 mg/kg and 2 mg/kg, respectively.
